# Laboratory results taken from US20250345277A1, “Ionizable Liposome, Preparation Thereof, and Application Thereof in Gene Delivery” (MAXIRNA (ZHEJIANG) TECHNOLOGY CO. LTD., priority 2021, published 2025).
# Experiments:
# [1] = Size and polydispersity index PDI of lipid nanoparticles (Malvern Zetasizer Nano ZS); format: physicochemical; conditions: LNP ionizable lipid/DOPE/cholesterol/DSPE-PEG2000 35/16/46.5/2.5 mol% encapsulating EGFP mRNA; for Particle Size: in nm (unit assumed)
# Experimental: The ionizable lipid compound of Example 1 was dissolved in ethanol with DOPE, cholesterol and DSPE-PEG2000 (all purchased from AVT (Shanghai) Pharmaceutical Technology Co., Ltd.) at a molar ratio of 35:16:46.5:2.5 to prepare ethanol lipid solution, and enhanced green fluorescent protein (EGFP) mRNAs (Shanghai Maximna Pharmaceutical Engineering Co., Ltd., JN-4201) were diluted in 20 mM citrate buffer (pH=6.1) to obtain mRNA aqueous solution. Ethanol lipid solution and mRNA aqueous solution were mixed at a volume ratio of 1:3 by using a microfluidic device (Micro&Nano (Shanghai) Instrument Technology Co., Ltd., model: INano™ML), LNPs were prepared with a weight ratio of approximately 10:1 between total lipids and mRNAs. The medium was replaced by ultrafiltration, ethanol was removed and volumed with DPBS. Finally, the lipid nanoparticles were filtered through a 0.2 μm sterile filter to obtain a LNP formulation encapsulating eGFP mRNA using ionizable lipid/DOPE/cholesterol/DSPE-PEG2000 (35/16/46.5/2.5 mol %), the concentration of mRNAs being 0.002 mg/mL-0.5 mg/mL.
# Using Malvern Zetasizer Nano ZS (Malvern UK), the size and polydispersity index PDI of lipid nanoparticles were measured at […].
# [2] = test system: DC2.4 cells; test: In vitro transfection of DC2.4 cells with EGFP mRNA LNP preparation (flow cytometry); format: cell-based, mouse; conditions: for Cell Viability / Positive Rate (EGFP) / Fluorescence Intensity: DC2.4 cells; for Cell Viability / Positive Rate (EGFP): EGFP mRNA LNP, 200 ng mRNA per well, flow cytometry; for Fluorescence Intensity: EGFP mRNA expression level, normalized based on the sample with the highest fluorescence intensity
# Excerpt: The description is based on peripheral blood mononuclear cells PBMC (Shanghai Oribiotech Co., Ltd.), human peripheral blood leukemia T cell Jurkat (ATCC), tumor infiltrating lymphocyte TIL (isolated from resected tumor tissue of a liver cancer patient, the preparation method refers to CN114763530A), mouse bone marrow-derived dendritic cells DC2.4 (Cell Bank of the Chinese Academy of Sciences), and Chinese hamster ovary cells CHO (ATCC) were used as verified cell lines for liposome transfection. PBMC, Jurkat, and TIL cells grew in suspension, while DC2.4 and CHO cells grew by adherent culture. All the operation steps of cell culture must strictly abide by the prescribed procedures, and sterile reagents is used to perform aseptic operations under a sterile workbench. The main steps are as follows: • 1) Cell recovery: the preserved cell cryopreservation solution was taken out of the −80° C. refrigerator, and was immediately put in a 37° C. water bath for rapid and continuous shaking, and was completely melted within one minute. Fresh medium was added to the 15 mL centrifuge tube in advance, and the cell solution was added to the centrifuge tube in a biological safety cabinet. A centrifuge tube of the same quality was taken and placed symmetrically in a centrifuge, centrifuged at a low speed at 1200 rpm for 5 min. After centrifugation, the supernatant was removed, and an appropriate amount of medium was slowly added along the tube wall. After the cells were evenly dispersed by blowing gently, the cell suspension was pipette and added to the culture bottle prepared in advance. The state and distribution of the cells in the early stage of recovery were observed under a microscope. The culture bottle was placed in a 5% CO2 incubator and incubated at 37° C., and the recovery time was recorded. • 2) Cell subculture: Under the microscope, if the cell density in the field of view reaches 80%-90%, the cells can be subcultured. Adherent cells need to be digested with trypsin. In order to avoid the residual serum in the culture medium to reduce the activity of trypsin, DPBS solution was added to wash once after removing the original culture medium. After remove the DPBS solution, trypsin was added to degrade the protein at the junction between cells. This separates the cells for further culture. The cells were gently shaked evenly and put into the incubator for digestion for 2 min. Immediately after the digestion was completed, an appropriate amount of medium was added to the original petri dish to terminate the digestion. Finally, the cells were carefully blowed off using a pipette and blowed until they are evenly dispersed, and then inoculated and subcultured at a certain ratio according to the experimental requirements. […]
# • 1) DC2.4 cells recovery: the frozen DC2.4 cells were taken out from the −80° C. refrigerator, put in a 37° C. water bath to quickly thaw the cells, added to the preheated medium after thawing, centrifuged at 1200 rpm for 5 min, the supernatant was discarded, and an appropriate amount of DMEM medium with 10% FBS was added to resuspend the recovered DC2.4, and placed in a 5% CO2 incubator at 37° C. for activation and culture. • 2) According to the experimental arrangement, DC2.4 cells were plated on a 24-well plate one day in advance for cell transfection. Through cell counting, the number of cells and cell viability were recorded, the cell suspension were taken at 2×10^5 cells per well, then a certain volume of DMEM medium containing 10% FBS was added and mixed evenly, 1 mL of mixture was added to each well for subsequent transfection experiment. • 3) After 24 hours, the medium was gently removed 30 minutes in advance by a pipette, 1 mL DPBS was added to each well for washing and then removed, then 300 μL serum-free Opti-MEM medium was added to each well for subsequent transfection experiments.
# Subsequent steps are the same as the transfection protocol for PBMC cells. […]
# [3] = In vitro stability test of LNP preparation stored at 4-8 °C; format: physicochemical; conditions: stored at 4-8° C. for 16 weeks; transfection tested on DC2.4
# Experimental: The preparation from Example 2 was stored at 4° C.-8° C. Samples were taken every other week to test the transfection performance of the samples on DC2.4, the size of the nanoparticles and the polydispersity index PDI. The whole process lasted 16 weeks. […] Other LNP preparations were stored at 4-8° C. for 16 weeks, and the particle size, PDI, and cell transfection efficiency also maintained the initial state.
Structure (SMILES),PDI [1],Particle Size [1],"particle size, PDI and cell transfection efficiency on storage (FIG. 8) [3]",Cell Viability [2] [%],Positive Rate (EGFP) [2] [%],Fluorescence Intensity [2],"cell viability by flow cytometry (FIG. 1) ([2]; DC2.4, after in vitro transfection)","transfection efficiency (FIG. 2) ([2]; DC2.4, in the absence of AopE4)"
CCCCCCCCCCC(O)CN(CCN1CCN(CCN(CCN(CC(O)CCCCCCCCCC)CC(O)CCCCCCCCCC)CCN(CC(O)CCCCCCCCCC)CC(O)CCCCCCCCCC)CC1)CC(O)CCCCCCCCCC (stereo not drawn) [A-C12],0.173,91.6,–,87.1,73.3,0.84,–,–
CCCCCCCCCCCCC(O)CN(CCN1CCN(CCN(CCN(CC(O)CCCCCCCCCCCC)CC(O)CCCCCCCCCCCC)CCN(CC(O)CCCCCCCCCCCC)CC(O)CCCCCCCCCCCC)CC1)CC(O)CCCCCCCCCCCC (stereo not drawn) [A-C14],0.107,97.1,–,95.4,92.3,0.30,–,–
"CCCCCCCCCCC(O)CN(CCOCCN(CCOCCN(CC(O)CCCCCCCCCC)CC(O)CCCCCCCCCC)CCN1CCN(CCOCCN(CC(O)CCCCCCCCCC)CC(O)CCCCCCCCCC)CC1)CC(O)CCCCCCCCCC (stereo not drawn) [B-C12, 19-(2-(4-(2-(2-(di(2-hydroxydodecyl)amino)ethoxy)ethyl)piperazin-1-yl)ethyl)-13, 15-bis(2-hydroxydodecyl)-16,22-dioxa-13,19,25-triazaheptakadecane-11,27-diol]",0.147,102.9,–,85.0,83.0,0.20,–,–
CCCCCCCCCCCCC(O)CN(CCOCCN(CCOCCN(CC(O)CCCCCCCCCCCC)CC(O)CCCCCCCCCCCC)CCN1CCN(CCOCCN(CC(O)CCCCCCCCCCCC)CC(O)CCCCCCCCCCCC)CC1)CC(O)CCCCCCCCCCCC (stereo not drawn) [B-C14],0.133,90.5,remained in the initial state,95.0,90.2,1.00,high viability,high transfection efficiency
CCCCCCCCCCC(O)CN(CCOCCOCCN(CCOCCOCCN(CC(O)CCCCCCCCCC)CC(O)CCCCCCCCCC)CCN1CCN(CCOCCOCCN(CC(O)CCCCCCCCCC)CC(O)CCCCCCCCCC)CC1)CC(O)CCCCCCCCCC (stereo not drawn) [C-C12],0.070,92.5,–,94.0,64.4,0.71,–,–
CCCCCCCCCCCCC(O)CN(CCN(CCN1CCN(C)CC1)CCN(CC(O)CCCCCCCCCCCC)CC(O)CCCCCCCCCCCC)CC(O)CCCCCCCCCCCC (stereo not drawn) [E-C14],0.119,85.2,–,>99.0,84.3,0.45,–,–
CCCCCCCCCCCCC(O)CN(CCOCCN(CCOCCN(CC(O)CCCCCCCCCCCC)CC(O)CCCCCCCCCCCC)CCN1CCN(C)CC1)CC(O)CCCCCCCCCCCC (stereo not drawn) [F-C14],0.131,82.4,–,93.2,73.5,0.33,–,–
CCCCCCCCCCCCC(O)CN(CCOCCOCCN(CCOCCOCCN(CC(O)CCCCCCCCCCCC)CC(O)CCCCCCCCCCCC)CCN1CCN(C)CC1)CC(O)CCCCCCCCCCCC (stereo not drawn) [G-C14],0.180,86.4,–,>99.0,67.5,0.30,–,–
CCCCCCCCCCCCC(O)CN(CCOCCOCCOCCN(CCOCCOCCOCCN(CC(O)CCCCCCCCCCCC)CC(O)CCCCCCCCCCCC)CCN1CCN(C)CC1)CC(O)CCCCCCCCCCCC (stereo not drawn) [H-C14],0.099,94.8,–,91.7,66.8,0.52,–,–

# Now from value to compound, other results behind:
PDI [1],Particle Size [1],"particle size, PDI and cell transfection efficiency on storage (FIG. 8) [3]",Structure (SMILES),Cell Viability [2] [%],Positive Rate (EGFP) [2] [%],Fluorescence Intensity [2],"cell viability by flow cytometry (FIG. 1) ([2]; DC2.4, after in vitro transfection)","transfection efficiency (FIG. 2) ([2]; DC2.4, in the absence of AopE4)"
0.183,90.8,–,CCCCCCCCCCCCCCC(O)CN(CCN1CCN(CCN(CCN(CC(O)CCCCCCCCCCCCCC)CC(O)CCCCCCCCCCCCCC)CCN(CC(O)CCCCCCCCCCCCCC)CC(O)CCCCCCCCCCCCCC)CC1)CC(O)CCCCCCCCCCCCCC (stereo not drawn) [A-C16],90.0,66.3,0.80,–,–
0.144,96.9,–,CCCCCCCCCCCCCCCCC(O)CN(CCN1CCN(CCN(CCN(CC(O)CCCCCCCCCCCCCCCC)CC(O)CCCCCCCCCCCCCCCC)CCN(CC(O)CCCCCCCCCCCCCCCC)CC(O)CCCCCCCCCCCCCCCC)CC1)CC(O)CCCCCCCCCCCCCCCC (stereo not drawn) [A-C18],93.0,61.9,0.87,–,–
0.073,90.5,–,CCCCCCCCCCC(O)CN(CCOCCOCCOCCN(CCOCCOCCOCCN(CC(O)CCCCCCCCCC)CC(O)CCCCCCCCCC)CCN1CCN(CCOCCOCCOCCN(CC(O)CCCCCCCCCC)CC(O)CCCCCCCCCC)CC1)CC(O)CCCCCCCCCC [D-C12],90.8,65.6,0.07,–,–
0.168,97.2,–,CCCCCCCCCCCCC(O)CN(CCOCCOCCOCCN(CCOCCOCCOCCN(CC(O)CCCCCCCCCCCC)CC(O)CCCCCCCCCCCC)CCN1CCN(CCOCCOCCOCCN(CC(O)CCCCCCCCCCCC)CC(O)CCCCCCCCCCCC)CC1)CC(O)CCCCCCCCCCCC [D-C14],91.3,96.7,0.95,–,–
0.117,91.6,–,CCCCCCCCCCCCCCC(O)CN(CCOCCOCCOCCN(CCOCCOCCOCCN(CC(O)CCCCCCCCCCCCCC)CC(O)CCCCCCCCCCCCCC)CCN1CCN(CCOCCOCCOCCN(CC(O)CCCCCCCCCCCCCC)CC(O)CCCCCCCCCCCCCC)CC1)CC(O)CCCCCCCCCCCCCC [D-C16],91.1,71.7,0.82,–,–
0.105,103.0,–,CCCCCCCCCCCCCCCCC(O)CC(CCOCCOCCOCCN(CCOCCOCCOCCN(CC(O)CCCCCCCCCCCCCCCC)CC(O)CCCCCCCCCCCCCCCC)CCN1CCN(CCOCCOCCOCCN(CC(O)CCCCCCCCCCCCCCCC)CC(O)CCCCCCCCCCCCCCCC)CC1)CC(O)CCCCCCCCCCCCCCCC [D-C18],81.5,64.4,0.45,–,–
